Measurements published in patent US12049439B2 (OrsoBio, Inc., priority 2018, dated 2024).

Test system: PC-3 cells
Experiment: PC-3 Oxygen Rate Consumption (OCR) Assay
Format: cell-based
Conditions: Homo sapiens, 0.05 h, medium with 2% FBS, OCR at 3-min post-injection normalized to % increase over DMSO-treated cells, concentration for half-maximal OCR increase, read-out: EC50-PC3-OCR-FBS-3min
Procedure, shortened: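 Oxygen consumption read on Seahorse XFe96: three basal measurements, then compound injection and 10 cycles over 30 min. EC50 defined as concentration giving half-maximal OCR rise, using 3-min post-injection values as % above DMSO controls, six replicates per treatment, in PC-3 cells in glucose/pyruvate medium.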

| SMILES | EC50 [µM] |
| --- | --- |
| CS(=O)(=O)Nc1ccc(C(F)(F)F)cc1C(=O)NC12CC(C(F)(F)F)(C1)C2 [Example 166, 2-(methylsulfonamido)-5-(trifluoromethyl)-N-(3-(trifluoromethyl)bicyclo[1.1.1]pentan-1-yl)benzamide] | 1.07 |
| CS(=O)(=O)Nc1ccc(S(F)(F)(F)(F)F)cc1C(=O)NC12CCC(C#N)(CC1)CC2 [Example 167, N-(4-cyanobicyclo[2.2.2]octan-1-yl)-2-(methylsulfonamido)-5-(pentafluoro-λ^6-sulfanyl)benzamide] | 5.88 |
| CS(=O)(=O)Nc1cc(C(F)(F)F)ccc1C(=O)NC12CCC(C#N)(CC1)CC2 [Example 168, N-(4-cyanobicyclo[2.2.2]octan-1-yl)-2-(methylsulfonamido)-4-(trifluoromethyl)benzamide] | 15 |
| COC12CC(NC(=O)c3cc(C(F)(F)F)ccc3NS(=O)(=O)C(C)(C)C)(C1)C2 [Example 169, 2-((1,1-dimethylethyl)sulfonamido)-N-(3-methoxybicyclo[1.1.1]pentan-1-yl)-5-(trifluoromethyl)benzamide] | 11.4 |
| COC12CC(NC(=O)c3cc(C(F)(F)F)ccc3NS(C)(=O)=O)(C1)C2 [Example 170, N-(3-methoxybicyclo[1.1.1]pentan-1-yl)-2-(methylsulfonamido)-5-(trifluoromethyl)benzamide] | 44.8 |
| CC(C)(C)S(=O)(=O)Nc1ccc(C(F)(F)F)cc1C(=O)NC12CCC(O)(CC1)CC2 [Example 171, 2-((1,1-dimethylethyl)sulfonamido)-N-(4-hydroxybicyclo[2.2.2]octan-1-yl)-5-(trifluoromethyl)benzamide] | 112 |
| CC(C)(C)S(=O)(=O)Nc1ccc(C(F)(F)F)cc1C(=O)NC12CCC(C#N)(CC1)C2 [Example 172, N-(4-cyanobicyclo[2.2.1]heptan-1-yl)-2-((1,1-dimethylethyl)sulfonamido)-5-(trifluoromethyl)benzamide] | 1.66 |
| CS(=O)(=O)Nc1ccc(C(F)(F)F)cc1C(=O)NC12CCC(C#N)(CC1)C2 [Example 173, N-(4-cyanobicyclo[2.2.1]heptan-1-yl)-2-(methylsulfonamido)-5-(trifluoromethyl)benzamide] | 26.4 |
| CN(C)S(=O)(=O)Nc1ccc(C(F)(F)F)cc1C(=O)NC1CC2CCC(C1)N2S(C)(=O)=O (stereo not drawn) [Example 174, 2-((N,N-dimethylsulfamoyl)amino)-N-(8-(methylsulfonyl)-8-azabicyclo[3.2.1]octan-3-yl)-5-(trifluoromethyl)benzamide] | 108 |
| CS(=O)(=O)Nc1ccc(C(F)(F)F)cc1C(=O)NC12CC3CC(CC(C#N)(C3)C1)C2 [Example 175, N-((1R,5R)-3-cyanoadamantan-1-yl)-2-(methylsulfonamido)-5-(trifluoromethyl)benzamide] | 5.98 |
| CC(C)(C)S(=O)(=O)Nc1ccc(C(F)(F)F)cc1C(=O)NC12CC3CC(CC(C#N)(C3)C1)C2 [Example 176, N-((1R,5R)-3-cyanoadamantan-1-yl)-2-((1,1-dimethylethyl)sulfonamido)-5-(trifluoromethyl)benzamide] | 1.7 |
| CN(C)S(=O)(=O)Nc1ccc(C(F)(F)F)cc1C(=O)NC12CC3CC(CC(C#N)(C3)C1)C2 [Example 177, N-((1R,5R)-3-cyanoadamantan-1-yl)-2-((N,N-dimethylsulfamoyl)amino)-5-(trifluoromethyl)benzamide] | 1.86 |
| N#CC12CCC(NC(=O)c3cc(C(F)(F)F)ccc3NS(=O)(=O)N3CCOCC3)(CC1)CC2 [Example 178, N-(4-cyanobicyclo[2.2.2]octan-1-yl)-2-(morpholine-4-sulfonamido)-5-(trifluoromethyl)benzamide] | 5.93 |
| N#CC12CCC(NC(=O)c3cc(C(F)(F)F)ccc3NS(=O)(=O)N3CCC3)(CC1)CC2 [Example 179, 2-(azetidine-1-sulfonamido)-N-(4-cyanobicyclo[2.2.2]octan-1-yl)-5-(trifluoromethyl)benzamide] | 8.84 |
| CP(C)(=O)c1ccc(S(=O)(=O)Nc2cc(C(F)(F)F)ccc2C(=O)NC23CC4CC(CC(C#N)(C4)C2)C3)cc1 [Example 180] | ≥ 200 |
| CCP(=O)(CC)c1ccc(S(=O)(=O)Nc2cc(C(F)(F)F)ccc2C(=O)NC23CC4CC(CC(C#N)(C4)C2)C3)cc1 [Example 181] | 114 |
| COC1CN(S(=O)(=O)Nc2ccc(C(F)(F)F)cc2C(=O)NC23CCC(C#N)(CC2)CC3)C1 [Example 182, N-(4-cyanobicyclo[2.2.2]octan-1-yl)-2-((3-methoxyazetidine)-1-sulfonamido)-5-(trifluoromethyl)benzamide] | 13 |
| CS(=O)(=O)Nc1ccc(C(F)(F)F)cc1C(=O)NC12CCC(C(F)(F)F)(CC1)CC2 [Example 183, 2-(methylsulfonamido)-5-(trifluoromethyl)-N-(4-(trifluoromethyl)bicyclo[2.2.2]octan-1-yl)benzamide] | 0.824 |

| SMILES | EC50 [µM] |
| --- | --- |
| CS(=O)(=O)Nc1ccc(S(F)(F)(F)(F)F)cc1C(=O)NC1CC2CCC(C1)O2 (stereo not drawn) [Example 184, N-(8-oxabicyclo[3.2.1]octan-3-yl)-2-(methylsulfonamido)-5-(pentafluoro-λ^6-sulfanyl)benzamide] | 48.1 |
| CS(=O)(=O)Nc1ccc(OC(F)(F)F)cc1C(=O)NC12CCC(C#N)(CC1)CC2 [Example 185, N-(4-cyanobicyclo[2.2.2]octan-1-yl)-2-(methylsulfonamido)-5-(trifluoromethoxy)benzamide] | 32 |
| CC(C)(C)P(=O)(c1ccc(S(=O)(=O)Nc2cc(C(F)(F)F)ccc2C(=O)NC23CCC(C#N)(CC2)CC3)cc1)C(C)(C)C [Example 186, N-(4-cyanobicyclo[2.2.2]octan-1-yl)-2-((4-(di-tert-butylphosphoryl)phenyl)sulfonamido)-4-(trifluoromethyl)benzamide] | 12.6 |
| CS(=O)(=O)Nc1ccc(C(F)(F)F)cc1C(=O)NC12C3C4C1C1C2C3C41C#N [Example 187, N-((2r,3R,4r,5S)-4-cyanocuban-1-yl)-2-(methylsulfonamido)-5-(trifluoromethyl)benzamide] | 11.5 |
| CN(C)S(=O)(=O)Nc1cc(F)ccc1C(=O)NC12CC(C(F)(F)F)(C1)C2 [Example 188, 2-((N,N-dimethylsulfamoyl)amino)-4-fluoro-N-(3-(trifluoromethyl)bicyclo[1.1.1]pentan-1-yl)benzamide] | 3.29 |
| CN(C)S(=O)(=O)Nc1ccc(C(F)(F)F)cc1C(=O)NC12CC(C(F)(F)F)(C1)C2 [Example 189, 2-((N,N-dimethylsulfamoyl)amino)-5-(trifluoromethyl)-N-(3-(trifluoromethyl)bicyclo[1.1.1]pentan-1-yl)benzamide] | 0.511 |
| CN(C)S(=O)(=O)Nc1ccc(C(F)(F)F)cc1C(=O)NC12CCC(C#N)(CC1)CC2 [Example 190, N-(4-cyanobicyclo[2.2.2]octan-1-yl)-2-((N,N-dimethylsulfamoyl)amino)-5-(trifluoromethyl)benzamide] | 4.15 |
| CC(C)(C)S(=O)(=O)Nc1ccc(C(F)(F)F)cc1C(=O)NC12CCC(C#N)(CC1)CC2 [Example 191, N-(4-cyanobicyclo[2.2.2]octan-1-yl)-2-((1,1-dimethylethyl)sulfonamido)-5-(trifluoromethyl)benzamide] | 1.76 |
| CC(C)(C)[S+]([O-])Nc1ccc(C(F)(F)F)cc1C(=O)NC12CC(C(F)(F)F)(C1)C2 (stereo not drawn) [Example 192, 2-((tert-butylsulfinyl)amino)-5-(trifluoromethyl)-N-(3-(trifluoromethyl)bicyclo[1.1.1]pentan-1-yl)benzamide] | 14.7 |
| O=C(NC12CC(C(F)(F)F)(C1)C2)c1cc(C(F)(F)F)ccc1NS(=O)(=O)N1CCS(=O)(=O)CC1 [Example 193, 2-((1,1-dioxidothiomorpholine)-4-sulfonamido)-5-(trifluoromethyl)-N-(3-(trifluoromethyl)bicyclo[1.1.1]pentan-1-yl)benzamide] | 9.95 |
| CS(=O)(=O)Nc1cc(Br)ccc1C(=O)NC12CCC(C#N)(CC1)CC2 [Example 194, 4-bromo-N-(4-cyanobicyclo[2.2.2]octan-1-yl)-2-(methylsulfonamido)benzamide] | ≥ 50 |
| CS(=O)(=O)Nc1ccc(C(F)(F)F)cc1C(=O)NC1CC2(CC(=O)C2)C1 [Example 195, 2-(methylsulfonamido)-N-(6-oxospiro[3.3]heptan-2-yl)-5-(trifluoromethyl)benzamide] | 67.5 |
| N#CC12CCC(NC(=O)c3cc(C(F)(F)F)ccc3NS(=O)(=O)Cc3ccccc3)(CC1)CC2 [Example 196, N-(4-cyanobicyclo[2.2.2]octan-1-yl)-2-((phenylmethyl)sulfonamido)-5-(trifluoromethyl)benzamide] | 1.38 |
| O=C(NC12CCC(F)(CC1)CC2)c1cc(C(F)(F)F)ccc1NS(=O)(=O)Cc1ccccc1 [Example 197, N-(4-fluorobicyclo[2.2.2]octan-1-yl)-2-((phenylmethyl)sulfonamido)-5-(trifluoromethyl)benzamide] | 0.893 |
| CS(=O)(=O)Nc1cc(F)ccc1C(=O)NC12CCC(C#N)(CC1)CC2 [Example 198, N-(4-cyanobicyclo[2.2.2]octan-1-yl)-4-fluoro-2-(methylsulfonamido)benzamide] | ≥ 200 |
| CS(=O)(=O)Nc1cc(F)ccc1C(=O)NC12CCC(F)(CC1)CC2 [Example 199, 4-fluoro-N-(4-fluorobicyclo[2.2.2]octan-1-yl)-2-(methylsulfonamido)benzamide] | ≥ 100 |
| Cc1ncsc1CCS(=O)(=O)Nc1ccc(C(F)(F)F)cc1C(=O)NC12CCC(C#N)(CC1)CC2 [Example 200, N-(4-cyanobicyclo[2.2.2]octan-1-yl)-2-((2-(4-methylthiazol-5-yl)ethyl)sulfonamido)-5-(trifluoromethyl)benzamide] | 5.09 |
| Cc1ncsc1CCS(=O)(=O)Nc1ccc(C(F)(F)F)cc1C(=O)NC12CCC(F)(CC1)CC2 [Example 201, N-(4-fluorobicyclo[2.2.2]octan-1-yl)-2-((2-(4-methylthiazol-5-yl)ethyl)sulfonamido)-5-(trifluoromethyl)benzamide] | 1.29 |
